{
  "source": "ChEMBL document CHEMBL1155594",
  "about": "“Absolute configuration and antiprotozoal activity of minquartynoic acid” (J Nat Prod, 2000)",
  "key": {"Leishmania major": {"system": "Leishmania major", "experiment": "Antileishmanial activity against Leishmania major promastigotes after 20 hrs", "assay_type": "functional, organism-based"}, "[1]": {"experiment": "Inhibition of phytohemagglutininin A-induced proliferation in human lymphocytes assessed as radiolabeled thymidine uptake", "assay_type": "cell-based", "details": "Lymphocyte"}, "Plasmodium falciparum": {"system": "Plasmodium falciparum", "experiment": "Antiplasmodial activity against chloroquine-sensitive Plasmodium falciparum 3D7", "assay_type": "functional, organism-based"}},
  "data": [
    {"smiles": "C[C@H](O)C#CC#CC#CC#CCCCCCCCC(=O)O", "note": "[MINQUARTYNOIC ACID]", "values": [
      {"measurement": "IC50", "setting": "Leishmania major", "value": 1.4, "unit": "µg/mL"},
      {"measurement": "IC50", "setting": "[1]", "value": 5.3, "unit": "µg/mL"},
      {"measurement": "IC50", "setting": "Plasmodium falciparum", "value": 3, "unit": "µg/mL"}
    ]}
  ]
}
